# Laboratory results: the supplement of paper PMC11208160
# Assay: recombinant UMI read abundance after kanamycin selection (control-corrected) (log10(CPM+1)); higher = more efficient recombination; extreme values may be limits of the assay; sequences stand for … in AGTGCAGAGAAAATCGGCCAGTTTTCTCTGCCTGCAGTCCGCATGCCGTGGGACCCCTTGGGTTCTAACCTGTTGCCTAGATTTATGCAGCGGACTGCCTTTCTCCCAAAGTGATAAACCGG…AGGTTGGTTTCACT; site = the 11-nt donor
# Outline: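 Values are reported as log10(CPM+1), obtained by converting sequencing counts to CPM, averaging replicates and scaling by control-derived factors. The counts came from recombinant UMIs amplified by PCR across the donor–target junction. These UMIs came from a pooled Escherichia coli screen of donor and donor-binding-loop pairs for the IS621 bridge recombinase, plated with IPTG (0.07 mM) plus kanamycin or left unselected, in two replicates each.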
# 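Note: IS621 bridge recombinase in Escherichia coli cells against a fixed T5 target plasmid.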
row,Sequence,recombinant UMI read abundance (log10)
1,CGATCGACATGGACCGGTTTTCCCGGTAATCCGTATTTGTG (site CGATCGACTTA),0.319
2,CGATCGACATGGACCGGTTTTCCCGGTAATCCGTATTTGTT (site AGATCGACTAA),0.0131
3,CGATCGACATGGACCGGTTTTCCCGGTAATCCGTATTTGTT (site CAATCGACTAA),0.0144
4,CGATCGACATGGACCGGTTTTCCCGGTAATCCGTATTTGTT (site CCATCGACTAA),0.0246
5,CGATCGACATGGACCGGTTTTCCCGGTAATCCGTATTTGTT (site CGAACGACTAA),0.0148
6,CGATCGACATGGACCGGTTTTCCCGGTAATCCGTATTTGTT (site CGACCGACTAA),0.509
7,CGATCGACATGGACCGGTTTTCCCGGTAATCCGTATTTGTT (site CGAGCGACTAA),0.0076
8,CGATCGACATGGACCGGTTTTCCCGGTAATCCGTATTTGTT (site CGATAGACTAA),0.00765
9,CGATCGACATGGACCGGTTTTCCCGGTAATCCGTATTTGTT (site CGATCAACTAA),0.0776
10,CGATCGACATGGACCGGTTTTCCCGGTAATCCGTATTTGTT (site CGATCCACTAA),0.0134
11,CGATCGACATGGACCGGTTTTCCCGGTAATCCGTATTTGTT (site CGATCGACTAA),0.6
12,CGATCGACATGGACCGGTTTTCCCGGTAATCCGTATTTGTT (site CGATCGACTAC),0.0194
13,CGATCGACATGGACCGGTTTTCCCGGTAATCCGTATTTGTT (site CGATCGACTAG),1.09
14,CGATCGACATGGACCGGTTTTCCCGGTAATCCGTATTTGTT (site CGATCGACTAT),0.188
15,CGATCGACATGGACCGGTTTTCCCGGTAATCCGTATTTGTT (site CGATCGACTCA),0.0164
16,CGATCGACATGGACCGGTTTTCCCGGTAATCCGTATTTGTT (site CGATCGACTGA),0.668
17,CGATCGACATGGACCGGTTTTCCCGGTAATCCGTATTTGTT (site CGATCGACTTA),0.271
18,CGATCGACATGGACCGGTTTTCCCGGTAATCCGTATTTGTT (site CGATCGCCTAA),0.00955
19,CGATCGACATGGACCGGTTTTCCCGGTAATCCGTATTTGTT (site CGATCGGCTAA),0.00691
20,CGATCGACATGGACCGGTTTTCCCGGTAATCCGTATTTGTT (site CGATCGTCTAA),0.00706
21,CGATCGACATGGACCGGTTTTCCCGGTAATCCGTATTTGTT (site CGATCTACTAA),0.00746
22,CGATCGACATGGACCGGTTTTCCCGGTAATCCGTATTTGTT (site CGATGGACTAA),0.0255
23,CGATCGACATGGACCGGTTTTCCCGGTAATCCGTATTTGTT (site CGATTGACTAA),0.0149
24,CGATCGACATGGACCGGTTTTCCCGGTAATCCGTATTTGTT (site CGCTCGACTAA),0.0137
25,CGATCGACATGGACCGGTTTTCCCGGTAATCCGTATTTGTT (site CGGTCGACTAA),0.012
26,CGATCGACATGGACCGGTTTTCCCGGTAATCCGTATTTGTT (site CGTTCGACTAA),0.0124

row,Sequence,recombinant UMI read abundance (log10)
1,CGATCGACATGGACCGGTTTTCCCGGTAATCCGTATTTGTT (site CTATCGACTAA),0.0176
2,CGATCGACATGGACCGGTTTTCCCGGTAATCCGTATTTGTT (site GGATCGACTAA),0.0103
3,CGATCGACATGGACCGGTTTTCCCGGTAATCCGTATTTGTT (site TGATCGACTAA),0.00749
4,CGATCGCCATGGACCGGTTTTCCCGGTAATCCGTATTTGCT (site CGATCATCTAG),0
5,CGATCGCCATGGACCGGTTTTCCCGGTAATCCGTATTTGCT (site CGATCGCCTAG),0.27
6,CGATCGGCATGGACCGGTTTTCCCGGTAATCCGTATTTGTT (site CGATCGACTAA),0.00492
7,CGATCGGCATGGACCGGTTTTCCCGGTAATCCGTATTTGTT (site CGATCGCCTAA),0.0111
8,CGATCGGCATGGACCGGTTTTCCCGGTAATCCGTATTTGTT (site CGATCGGCTAA),0.642
9,CGATCGGCATGGACCGGTTTTCCCGGTAATCCGTATTTGTT (site CGATCGTCTAA),0.324
10,CGATCTTCATGGACCGGTTTTCCCGGTAATCCGTATTTGCA (site CGATCATCTAG),0
11,CGATCTTCATGGACCGGTTTTCCCGGTAATCCGTATTTGCA (site CGATCTTCTTG),0.912
12,CGATGACCATGGACCGGTTTTCCCGGTAATCCGTATTTGGG (site CGAAGACCTCC),0.00605
13,CGATGACCATGGACCGGTTTTCCCGGTAATCCGTATTTGGG (site CGACGACCTCC),0.00326
14,CGATGACCATGGACCGGTTTTCCCGGTAATCCGTATTTGGG (site CGAGGACCTCC),0.0601
15,CGATGACCATGGACCGGTTTTCCCGGTAATCCGTATTTGGG (site CGATGACCTCC),0.0111
16,CGATGATCATGGACCGGTTTTCCCGGTAATCCGTATTTGAT (site CGATCATCTAG),0
17,CGATGATCATGGACCGGTTTTCCCGGTAATCCGTATTTGAT (site CGATGATCTAT),2.44
18,CGATGCACATGGACCGGTTTTCCCGGTAATCCGTATTTGAT (site CGATGCACTAT),2.34
19,CGATTACCATGGACCGGTTTTCCCGGTAATCCGTATTTGAT (site CGATTACCTAT),0
20,CGATTGGCATGGACCGGTTTTCCCGGTAATCCGTATTTGCT (site CGATTGGCTAG),0.768
21,CGATTGGCATGGACCGGTTTTCCCGGTAATCCGTATTTGCT (site CGCTTGGCTAG),0
22,CGATTGGCATGGACCGGTTTTCCCGGTAATCCGTATTTGCT (site CGGTTGGCTAG),0
23,CGATTGGCATGGACCGGTTTTCCCGGTAATCCGTATTTGCT (site CGTTTGGCTAG),0
24,CGATTTACATGGACCGGTTTTCCCGGTAATCCGTATTTGGC (site CGATTTACTGC),0
25,CGATTTCCATGGACCGGTTTTCCCGGTAATCCGTATTTGTT (site CGATTTCCTAA),0.757
26,CGCAACTCATGGACCGGTTTTCCCGGTAATCCGTATTTGAC (site CGCAACTCTGT),2.04
